The NIST ThermoML archive (doi:10.1021/je1005533)

Assay: refractive index (other wavelength) (dimensionless); xn = mol fraction of the nth substance listed
Conditions: 101.3 kPa, Liquid, Wavelength=632.8 nm, Standard Abbe refractometry

CCCCCCCCCCCCCCCC [hexadecane] + COC(=O)OC
Conditions | refractive index
308.19 K, x2 = 0.132 | 1.4228
308.21 K, x2 = 0 | 1.427
308.29 K, x2 = 0.397 | 1.4128
308.35 K, x2 = 0.219 | 1.4197
308.4 K, x2 = 0.291 | 1.417
309.24 K, x2 = 0 | 1.4265
309.25 K, x2 = 0.132 | 1.4224
309.32 K, x2 = 0.397 | 1.4123
309.54 K, x2 = 0.291 | 1.4164
309.66 K, x2 = 0.219 | 1.4191
310.21 K, x2 = 0 | 1.4261
310.33 K, x2 = 0.132 | 1.4219
310.38 K, x2 = 0.397 | 1.4118
310.83 K, x2 = 0.291 | 1.4158
311.09 K, x2 = 0.219 | 1.4185
311.24 K, x2 = 0 | 1.4256
311.39 K, x2 = 0.132 | 1.4214
311.42 K, x2 = 0.397 | 1.4113
312.09 K, x2 = 0.291 | 1.4153
312.18 K, x2 = 0.6 | 1.4005
312.2 K, x2 = 0.517 | 1.4052
312.3 K, x2 = 0 | 1.4252
312.43 K, x2 = 0.132 | 1.421
312.46 K, x2 = 0.397 | 1.4108
312.54 K, x2 = 0.219 | 1.4179
313.16 K, x2 = 0.517 | 1.4048
313.32 K, x2 = 0.6 | 1.3999
313.33 K, x2 = 0.291 | 1.4147
313.34 K, x2 = 0 | 1.4248
313.51 K, x2 = 0.132 | 1.4206
313.53 K, x2 = 0.397 | 1.4104
313.95 K, x2 = 0.219 | 1.4173
314.26 K, x2 = 0.517 | 1.4043
314.44 K, x2 = 0 | 1.4244
314.44 K, x2 = 0.6 | 1.3994
314.55 K, x2 = 0.132 | 1.4201
314.62 K, x2 = 0.397 | 1.41
314.63 K, x2 = 0.291 | 1.4142
315.34 K, x2 = 0.517 | 1.4038
315.5 K, x2 = 0.6 | 1.3989
315.54 K, x2 = 0 | 1.4239
315.57 K, x2 = 0.132 | 1.4197
315.59 K, x2 = 0.219 | 1.4166
315.71 K, x2 = 0.397 | 1.4094
315.92 K, x2 = 0.291 | 1.4136
316.19 K, x2 = 0.689 | 1.3925
316.42 K, x2 = 0.517 | 1.4033
316.45 K, x2 = 0.804 | 1.3827
316.55 K, x2 = 0 | 1.4235
316.56 K, x2 = 0.6 | 1.3984
316.64 K, x2 = 0.132 | 1.4192
316.73 K, x2 = 0.397 | 1.409
316.86 K, x2 = 0.872 | 1.3751
317.02 K, x2 = 0.689 | 1.3921
317.08 K, x2 = 0.219 | 1.416
317.2 K, x2 = 0.291 | 1.4131
317.25 K, x2 = 0.804 | 1.3823
317.51 K, x2 = 0.517 | 1.4028
317.56 K, x2 = 0 | 1.4231
317.67 K, x2 = 0.132 | 1.4188
317.67 K, x2 = 0.6 | 1.3979
317.74 K, x2 = 0.872 | 1.3747
317.81 K, x2 = 0.397 | 1.4085
317.89 K, x2 = 0.689 | 1.3917
318.06 K, x2 = 0.804 | 1.3819
318.49 K, x2 = 0.291 | 1.4125
318.5 K, x2 = 0.219 | 1.4154
318.55 K, x2 = 0.872 | 1.3743
318.61 K, x2 = 0 | 1.4226
318.74 K, x2 = 0.132 | 1.4183
318.84 K, x2 = 0.689 | 1.3913
318.89 K, x2 = 0.397 | 1.408
318.91 K, x2 = 0.804 | 1.3815
319.4 K, x2 = 0.872 | 1.3739
319.74 K, x2 = 0.689 | 1.3909
319.79 K, x2 = 0.804 | 1.381
320.28 K, x2 = 0.872 | 1.3735
320.64 K, x2 = 0.804 | 1.3806
